Experimental data reported in article PMC6248945, “Antibacterial properties of the pituitary adenylate cyclase-activating polypeptide: A new human antimicrobial peptide” (PLoS ONE, 2018).
Values after ≈ are worked out from the molar mass of the structure shown. Where a SMILES comes first, the peptide text is derived from it. [ ]: non-standard residue; d: D form. Tic = O=C(O)[C@@H]1Cc2ccccc2CN1

Key:
Escherichia coli (JM109) = test: MIC, CLSI microdilution; type: cell-based; conditions: MHB, 37 °C, 20h, OD read-out, at least triplicate
Protocol: Assays were performed according to the CLSI microdilution method. Briefly, the bacterial strains were inoculated and allowed to reach an OD600 of 0.08–0.13 prior to dilution to 10^6 CFU/mL in Mueller-Hinton broth (MHB). A bacterial suspension (50 μL) was then added to each well of a 96-well microplate containing serially diluted peptide solutions (50 μL in MHB) and incubated at 37 °C for 20h. A well containing sterilized medium was used as a sterility control and another well containing no added peptide served as a growth control.

[1] = system: Pseudomonas putida (KT2440); conditions: 20 h
[2] = system: Pseudomonas fluorescens (MF37); conditions: 20 h
[3] = system: Pseudomonas aeruginosa (PA14); conditions: PA14, 20 h
[4] = system: Burkholderia cenocepacia (J2315); conditions: 20 h
[5] = system: Burkholderia thailendensis (ATCC700388); conditions: CLSI microdilution, MHB, 37 °C, 20h, OD read-out; at least triplicate
[6] = system: Serratia marcescens (ATCC14756); conditions: ATCC14756, 20 h
[7] = system: Bacillus circulans (LSPQ3543); conditions: 20 h
[8] = system: Bacillus cereus (ATCC11778); conditions: ATCC11778, 20 h
[9] = system: Actinobacillus pleuropneumoniae (4074); conditions: 20 h
Bacillus subtilis (PY79) = conditions: PY79, 20 h
Bacillus velezensis = conditions: 20 h
[10] = system: Bacillus amyloliquefaciens (LMG22478); conditions: LMG22478, 20 h
[11] = system: Staphylococcus aureus (ATCC6538#P); conditions: ATCC6538, 20 h
[12] = system: Staphylococcus aureus (Newman); conditions: 20 h
[13] = system: Pseudomonas aeruginosa (ATCC33350-Sero-2); conditions: ATCC33350, 20 h
[14] = system: Escherichia coli ATCC25922; conditions: ATCC25922, 20 h
[15] = system: Escherichia coli (O157 :H7); conditions: CLSI microdilution, MHB, 37 °C, 20h, OD read-out; at least triplicate
[16] = system: Burkholderia cenocepacia (K56-2); conditions: 20 h
[17] = system: Burkholderia cenocepacia (LMG18829); conditions: LMG18829, 20 h
[18] = system: Burkholderia cenocepacia (LMG19240); conditions: CLSI microdilution, MHB, 37 °C, 20h, OD read-out; at least triplicate
[19] = system: Burkholderia cenocepacia (CEP0511 Gvar3b); conditions: CLSI microdilution, MHB, 37 °C, 20h, OD read-out; at least triplicate
Bacillus subtilis (2597) = conditions: 2597, 20 h
DPP-IV = system: DPP-IV; set-up: method as in PMID 18353507; conditions: cited from earlier work
[20] = relative to PACAP38; cited from earlier work

| Structure (SMILES) | MIC, Escherichia coli (JM109) (Escherichia coli (JM109)) | MIC, Pseudomonas putida (KT2440) [1] | MIC, Pseudomonas fluorescens (MF37) [2] | MIC, Pseudomonas aeruginosa (PA14) [3] | MIC, Burkholderia cenocepacia (J2315) [4] | MIC, Burkholderia thailendensis (ATCC700388) [5] | MIC, Serratia marcescens (ATCC14756) [6] | MIC, Bacillus circulans (LSPQ3543) [7] | MIC, Bacillus cereus (ATCC11778) [8] | MIC, Actinobacillus pleuropneumoniae [9] | MIC, Bacillus subtilis (PY79) (Bacillus subtilis (PY79)) | MIC, Bacillus velezensis (Bacillus velezensis) | MIC, Bacillus amyloliquefaciens [10] | MIC, Staphylococcus aureus (ATCC6538#P) [11] | MIC, Staphylococcus aureus (Newman) [12] | MIC, Pseudomonas aeruginosa (ATCC33350-Sero-2) [13] | MIC, Escherichia coli ATCC25922 [14] | MIC, Escherichia coli (O157 :H7) [15] | MIC, Burkholderia cenocepacia (K56-2) [16] | MIC, Bacillus subtilis (2597) (Bacillus subtilis (2597)) | further results |
| --- | --- | --- | --- | --- | --- | --- | --- | --- | --- | --- | --- | --- | --- | --- | --- | --- | --- | --- | --- | --- | --- |
| CC[C@H](C)[C@H](NC(=O)CNC(=O)[C@H](CC(=O)O)NC(=O)[C@H](CO)NC(=O)[C@@H](N)Cc1c[nH]cn1)C(=O)N[C@@H](Cc1ccccc1)C(=O)N[C@H](C(=O)N[C@@H](CC(=O)O)C(=O)N[C@@H](CO)C(=O)N[C@@H](Cc1ccc(O)cc1)C(=O)N[C@@H](CO)C(=O)N[C@@H](CCCNC(=N)N)C(=O)N[C@@H](Cc1ccc(O)cc1)C(=O)N[C@@H](CCCNC(=N)N)C(=O)N[C@@H](C)C(=O)N[C@@H](CCC(N)=O)C(=O)N[C@@H](CCSC)C(=O)N[C@@H](C)C(=O)N[C@H](C(=O)N[C@@H](CCCCN)C(=O)N[C@@H](CCCCN)C(=O)N[C@@H](Cc1ccc(O)cc1)C(=O)N[C@@H](CC(C)C)C(=O)N[C@@H](C)C(=O)N[C@@H](C)C(=O)N[C@H](C(=O)N[C@@H](CC(C)C)C(=O)NCC(=O)N[C@@H](CCCCN)C(=O)N[C@@H](CCCNC(=N)N)C(=O)N[C@@H](Cc1ccc(O)cc1)C(=O)N[C@@H](CCCCN)C(=O)N[C@@H](CCC(N)=O)C(=O)N[C@@H](CCCNC(=N)N)C(=O)N[C@H](C(=O)N[C@@H](CCCCN)C(=O)N[C@@H](CC(N)=O)C(=O)N[C@@H](CCCCN)C(N)=O)C(C)C)C(C)C)C(C)C)[C@@H](C)O [compound 3, [Ala^15]PACAP38] (H-HSDGIFTDSYSRYRAQMAVKKYLAAVLGKRYKQRVKNK-NH2) | 93 µg/mL (≈ 20.8 µM) | 93 µg/mL (≈ 20.8 µM) | >200 µg/mL | >200 µg/mL | 9 µg/mL (≈ 2.01 µM) | >200 µg/mL | >200 µg/mL | 21 µg/mL (≈ 4.69 µM) | >200 µg/mL | 112 µg/mL (≈ 25 µM) | 5 µg/mL (≈ 1.12 µM) | 33 µg/mL (≈ 7.37 µM) | 10 µg/mL (≈ 2.23 µM) | >200 µg/mL | >200 µg/mL | >200 µg/mL | >200 µg/mL | >200 µg/mL | >200 µg/mL | 111 µg/mL (≈ 24.8 µM) | MIC, Burkholderia cenocepacia (LMG18829) [17]: >200 µg/mL; MIC, Burkholderia cenocepacia (LMG19240) [18]: >200 µg/mL; MIC, Burkholderia cenocepacia (CEP0511 Gvar3b) [19]: >200 µg/mL; Metabolic stability against DPP-IV (DPP-IV): improved metabolic stability; Metabolic stability in human plasma [20]: improved metabolic stability |
| CSCC[C@H](NC(=O)[C@H](CCC(N)=O)NC(=O)[C@H](CCCCN)NC(=O)[C@H](CCCNC(=N)N)NC(=O)[C@H](Cc1ccc(O)cc1)NC(=O)[C@H](CCCNC(=N)N)NC(=O)[C@H](CO)NC(=O)[C@H](Cc1ccc(O)cc1)NC(=O)[C@@H](N)CO)C(=O)N[C@@H](C)C(=O)N[C@H](C(=O)N[C@@H](CCCCN)C(=O)N[C@@H](CCCCN)C(=O)N[C@@H](Cc1ccc(O)cc1)C(=O)N[C@@H](CC(C)C)C(=O)N[C@@H](C)C(=O)N[C@@H](C)C(=O)N[C@H](C(=O)N[C@@H](CC(C)C)C(=O)NCC(=O)N[C@@H](CCCCN)C(=O)N[C@@H](CCCNC(=N)N)C(=O)N[C@@H](Cc1ccc(O)cc1)C(=O)N[C@@H](CCCCN)C(=O)N[C@@H](CCC(N)=O)C(=O)N[C@@H](CCCNC(=N)N)C(=O)N[C@H](C(=O)N[C@@H](CCCCN)C(=O)N[C@@H](CC(N)=O)C(=O)N[C@@H](CCCCN)C(N)=O)C(C)C)C(C)C)C(C)C [compound 10, PACAP(9–38)] (H-SYSRYRKQMAVKKYLAAVLGKRYKQRVKNK-NH2) | >183 µg/mL | >183 µg/mL |  |  | 19 µg/mL (≈ 5.19 µM) |  |  |  |  | >183 µg/mL | >183 µg/mL |  | >183 µg/mL |  |  |  |  |  | >183 µg/mL | >183 µg/mL |  |
| CC[C@H](C)[C@H](NC(=O)CNC(=O)[C@H](CC(=O)O)NC(=O)[C@H](CO)NC(=O)[C@@H](N)Cc1c[nH]cn1)C(=O)N1Cc2ccccc2C[C@H]1C(=O)N[C@H](C(=O)N[C@@H](CC(=O)O)C(=O)N[C@@H](CO)C(=O)N[C@@H](Cc1ccc(O)cc1)C(=O)N[C@@H](CO)C(=O)N[C@@H](CCCNC(=N)N)C(=O)N[C@@H](Cc1ccc(O)cc1)C(=O)N[C@@H](CCCNC(=N)N)C(=O)N[C@@H](CCCCN)C(=O)N[C@@H](CCC(N)=O)C(=O)N[C@@H](CCSC)C(=O)N[C@@H](C)C(=O)N[C@H](C(=O)N[C@@H](CCCCN)C(=O)N[C@@H](CCCCN)C(=O)N[C@@H](Cc1ccc(O)cc1)C(=O)N[C@@H](CC(C)C)C(=O)N[C@@H](C)C(=O)N[C@@H](C)C(=O)N[C@H](C(=O)N[C@@H](CC(C)C)C(=O)NCC(=O)N[C@@H](CCCCN)C(=O)N[C@@H](CCCNC(=N)N)C(=O)N[C@@H](Cc1ccc(O)cc1)C(=O)N[C@@H](CCCCN)C(=O)N[C@@H](CCC(N)=O)C(=O)N[C@@H](CCCNC(=N)N)C(=O)N[C@H](C(=O)N[C@@H](CCCCN)C(=O)N[C@@H](CC(N)=O)C(=O)N[C@@H](CCCCN)C(N)=O)C(C)C)C(C)C)C(C)C)[C@@H](C)O [compound 7, [Tic^6]PACAP38] (H-HSDGI[Tic]TDSYSRYRKQMAVKKYLAAVLGKRYKQRVKNK-NH2) | >200 µg/mL | 33 µg/mL (≈ 7.26 µM) | >200 µg/mL | >200 µg/mL | 2 µg/mL (≈ 0.44 µM) | >200 µg/mL | >200 µg/mL | 6 µg/mL (≈ 1.32 µM) | >200 µg/mL | >200 µg/mL | 7 µg/mL (≈ 1.54 µM) | 71 µg/mL (≈ 15.6 µM) | 21 µg/mL (≈ 4.62 µM) | >200 µg/mL | >200 µg/mL | >200 µg/mL | >200 µg/mL | >200 µg/mL | >200 µg/mL | >200 µg/mL | MIC, Burkholderia cenocepacia (LMG18829) [17]: >200 µg/mL; MIC, Burkholderia cenocepacia (LMG19240) [18]: >200 µg/mL; MIC, Burkholderia cenocepacia (CEP0511 Gvar3b) [19]: >200 µg/mL |
